According to article PMC10989020, “Preclinical characterization of a non-peptidomimetic HIV protease inhibitor with improved metabolic stability” (Antimicrobial Agents and Chemotherapy, 2024):

How the values were obtained:
in vitro = assay type: cell-based; settings: human
Experimental: (§1) Compound cytotoxicity assessment in MT-4 cells, primary CD4+ T lymphocytes, and MDMs was carried out using a protocol identical to the antiviral assay except uninfected cells were used and tested with higher concentration ranges of test compounds. Assessment of cytotoxicity in additional human cell lines (Gal-PC3, Gal-HepG2, HEp-2, Huh-7, MRC-5, HepG2-NTCP, Huh7-Lunet HCV 1b and 2a replicons, NHBE, A549-hACE2) and primary human PBMCs (resting and stimulated with PHA/IL-2) and hepatocytes have been described previously ([19]). For all cytotoxicity assays, the CC50 value for puromycin was determined as a positive internal control and to assess assay sensitivity in each cell type. The effect of tested compounds on cell viability was measured using a CellTiter-Glo readout, performed according to the manufacturer’s recommendations.

[1] = In vivo pharmacokinetics in monkey; settings: cynomolgus monkey
Experimental: Preclinical pharmacokinetic studies were performed in male Sprague–Dawley rats, beagle dogs, and cynomolgus monkeys (three animals per dosing group in each species) following federal and Institutional Animal Care and Use Committee (IACUC) guidelines as described previously ([32]). […] The oral fraction absorbed (F%) was calculated using the formula:
%F=( PO Dose AUC0−inf) x (IV Dose)/(IV Dose AUC0−inf) x (PO Dose)×100%

[2] = Metabolic stability of radiolabeled GS-9770 in human liver microsomes; assay type: in vitro ADME; settings: radiolabeled GS-9770, human liver microsomes
[3] = Cytotoxicity in CD4+ T-lymphocytes; assay type: cell-based; settings: human, uninfected (mock infected) primary CD4+ T lymphocytes
Experimental: as §1

SARS-CoV-2 = assay: SARS-CoV2-Nluc reporter antiviral assay; settings: Severe acute respiratory syndrome coronavirus 2
Experimental: (§2) The hepatitis B virus (HBV) surface antigen (HBsAg) antiviral assay was performed as previously described ([28]) using ND-654 as a positive control. The respiratory syncytial virus (RSV) A2 HEp-2 antiviral assay was performed as previously described ([29]) using YM-53403 as a positive control. The severe acute respiratory syndrome coronavirus 2 (SARS-CoV-2) antiviral assay was performed as described previously ([30]) using remdesivir as a positive control.

[4] = human
[5] = Metabolic stability in human liver microsomes; assay type: in vitro ADME
Cytotoxicity in Huh-7 = assay type: cell-based; settings: human, Huh-7 cells
Experimental: as §1

[6] = Repeated oral administration in dogs; assay type: in vivo; settings: high doses
[7] = tested on: HIV-1 Gag (p55) polyprotein cleavage; assay: Gag polyprotein processing immunoblot in transfected HEK293T cells; assay type: cell-based; settings: 2 days post-transfection, anti-p24 immunoblot
Cytotoxicity in Gal-PC3 = assay type: cell-based; settings: human, Gal-PC3 cells
Experimental: as §1

[8] = tested on: HBV, HCV, RSV, SARS-CoV-2; assay: Antiviral activity against panel of non-HIV viruses (summary); settings: read-out: EC50 range across non-HIV viruses
Experimental: Antiviral assays using appropriate cell lines infected with non-HIV viruses were also performed. […] The hepatitis B virus (HBV) surface antigen (HBsAg) antiviral assay was performed as previously described ([28]) using ND-654 as a positive control. The respiratory syncytial virus (RSV) A2 HEp-2 antiviral assay was performed as previously described ([29]) using YM-53403 as a positive control. The severe acute respiratory syndrome coronavirus 2 (SARS-CoV-2) antiviral assay was performed as described previously ([30]) using remdesivir as a positive control.

Cytotoxicity in MRC-5 = assay type: cell-based; settings: human, MRC-5 cells
Experimental: as §1

HIV-1 BaL = assay: p24 production antiviral assay in CD4+ T-lymphocytes; assay type: cell-based; settings: Human immunodeficiency virus 1, T-lymphocyte, HIV-1BaL infected
Description: Antiviral assays performed in HIV-1BaL infected CD4 +T-lymphocytes and monocyte-derived macrophages (MDMs) have been described previously ([18]). Cell-free supernatants derived from the CD4 +T cell and macrophage cultures were harvested 7- and 12-days post-infection, respectively, and the amount of HIV present was quantified by p24 antigen enzyme-linked immunosorbent assay (ELISA, Perkin Elmer, Waltham, MA) performed according to the manufacturer’s protocol.

HCV-2a = assay: microbe, parasite or virus in culture; settings: Hepatitis C virus, Huh-7
HBV = assay: microbe, parasite or virus in culture; settings: Hepatitis B virus
Experimental: as §2

[9] = Predicted clearance from dog liver microsome fractions; assay type: in vitro ADME
two HIV-2 isolates = assay: Antiviral assay in PBMCs with HIV-2 clinical isolates (RT endpoint); assay type: cell-based; settings: Human immunodeficiency virus 2, PBMC, 168 h, 7-day, RT activity
Experimental: Antiviral assays using fresh human PBMCs independently infected with a panel of clinical HIV-1 and HIV-2 isolates were performed by Southern Research as a contracted research study and assessed 7 days post-infection using reverse transcriptase (RT) endpoint assay. Antiviral assays using HIV-1 reporter viruses containing patient-derived sequences encoding all of PR and a portion of RT (amino acids 1–313) and conferring resistance to FDA-approved HIV PIs were performed by Monogram Biosciences Inc. (South San Francisco, CA) using their previously described Phenosense assay ([25]).

HIV-1IIIb [10] = assay: Antiviral activity in MT-2/HIV-1IIIb cultures; assay type: cell-based; settings: Human immunodeficiency virus 1
[11] = Cytotoxicity in Gal-HepG2; assay type: cell-based; settings: human, Gal-HepG2 cells
Experimental: as §1

HIV-1IIIb [12] = assay: Two-drug in vitro combination assay in MT-2 cells (MacSynergy II); assay type: cell-based
Experimental: Anti-HIV-1 assays evaluating the in vitro antiviral effect of two-drug combinations were performed in MT-2 cells as previously described ([26]). Data were normalized to positive and negative controls in each plate and expressed as a percentage of protection from CPE-dependent cell death and analyzed with the MacSynergy II software. Combination data were analyzed at the 99% confidence level, with synergy/antagonism volumes defined as follows: high synergy (>100 µM^2%), moderate synergy (50 to <100 uM^2%), additivity (>−50 to <50 µM^2%), and antagonism (<−50 µM^2%).

For `CC(C)(CC1(c2ccc(-c3cnn(C4CC4)n3)cc2)NC(=N)N(C(COC(=O)NC2(C(F)F)CC2)c2ccc(Cl)c(-c3ncnn3C(F)F)c2)C1=O)C(F)(F)F` (stereo not drawn) [GS-9770], the CC50 (in vitro) was 15.1 ± 2.1 µM, the “tolerability at the doses tested” value ([1]; 1 mg/kg IV, 4–5 mg/kg PO) was “well tolerated” and the clearance ([1]; plasma, 1 mg/kg IV) was 5.67 mL/min/kg. It also gave a bioavailability ([1]; plasma, 1 mg/kg IV and 4 mg/kg PO, read-out: F% (oral bioavailability)) of 100 ± 34%, a half-life ([1]; plasma, 1 mg/kg IV and 4 mg/kg PO, read-out: Terminal t1/2 (converted)) of 7.4 ± 0.2 h and a Vd ([1]; plasma, 1 mg/kg IV, read-out: Vss) of 2.6 ± 0.8 L/kg. The “predicted human plasma clearance” value [2] was 1.5 mL/min/kg, the CC50 [3] was 9 ± 0.4 µM and the EC50 (SARS-CoV-2) was 5.3 ± 1.9 µM. For the same compound, the “predicted plasma half-life in humans” value [4] was ~ 18.5 hours, the “Eh% (percent predicted hepatic extraction)” value [5] was 9% and the “Predicted CL (predicted human clearance)” value [5] was 1.83 mL/min/kg. For the same compound, the half-life ([5]; read-out: T½ in the presence of human liver microsomes) was > 6.58 h, the CC50 (Cytotoxicity in Huh-7) was 17 ± 3 µM and the “finding after repeated oral administration” value [6] was “bronchoalveolar inflammation observed in the lungs of dogs”. The “concentration at which Gag polyprotein cleavage and release of mature p24 substantially reduced” value [7] was 10 nM, the “concentration giving complete inhibition of p24 formation” value [7] was 100 nM and the CC50 (Cytotoxicity in Gal-PC3) was 15 ± 4 µM. The EC50 [8] was 2.5 to 34 µM, the CC50 (Cytotoxicity in MRC-5) was 20 ± 6 µM and the EC50 (HIV-1 BaL) was 0.0085 ± 0.0025 µM. The EC50 (HCV-2a) was 10.4 ± 0.3 µM, the EC50 (HBV) was 11 ± 4 µM and the “in vitro predicted blood CL” value [9] was 12 mL/min/kg. It also gave an EC50 (two HIV-2 isolates) of 0.026 µM, an EC50 (HIV-1IIIb [10]) of 0.004 µM and a CC50 [11] of 13 ± 6 µM. For the same compound, the Antagonism volume (HIV-1IIIb [12]) was −3 ± 3 µM^2.%, the Combination effect (HIV-1IIIb [12]) was “Additive” and the Synergy volume (HIV-1IIIb [12]) was 23 ± 14 µM^2.%.
